From ChEMBL document CHEMBL1159043, “Synthesis and hSERT activity of homotryptamine analogs. Part 6: [3+2] dipolar cycloaddition of 3-vinylindoles” (Bioorg Med Chem Lett, 2010)
pIC50: −log10 of the molar value.

What follows are molecules tested against Sodium-dependent dopamine transporter (Homo sapiens, UniProt Q01959) (assay: Displacement of [I125]RTI-55 from human DAT transfected in human HEK293 cells).
Assay type: cell-based

Sodium-dependent dopamine transporter, sequence (Q01959 whole entry): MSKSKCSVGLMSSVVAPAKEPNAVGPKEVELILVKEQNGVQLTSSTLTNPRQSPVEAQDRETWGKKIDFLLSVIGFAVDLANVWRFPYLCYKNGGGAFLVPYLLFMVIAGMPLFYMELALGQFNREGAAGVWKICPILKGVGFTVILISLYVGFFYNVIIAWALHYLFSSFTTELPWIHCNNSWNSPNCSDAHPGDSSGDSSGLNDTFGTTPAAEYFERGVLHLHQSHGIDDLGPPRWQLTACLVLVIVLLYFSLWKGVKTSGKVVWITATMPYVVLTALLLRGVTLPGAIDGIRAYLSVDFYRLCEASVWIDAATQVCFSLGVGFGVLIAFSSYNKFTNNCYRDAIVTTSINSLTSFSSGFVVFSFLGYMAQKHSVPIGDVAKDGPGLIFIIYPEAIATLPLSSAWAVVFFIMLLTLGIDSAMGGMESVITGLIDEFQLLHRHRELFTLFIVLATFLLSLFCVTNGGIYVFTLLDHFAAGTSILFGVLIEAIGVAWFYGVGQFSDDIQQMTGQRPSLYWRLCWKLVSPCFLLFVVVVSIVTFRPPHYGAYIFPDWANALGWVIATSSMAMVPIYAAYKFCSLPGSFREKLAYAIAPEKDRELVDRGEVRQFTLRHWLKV

Compound | pIC50
CN1CCc2ccccc2C1CCc1c[nH]c2ccc(C#N)cc12 (single isomer, unassigned; (-)) [listing 1 of 2 here] | 6.21

Species: Homo sapiens
Assay: Selectivity ratio of IC50 for human DAT to IC50 for human SERT

Compound | Ratio IC50
CN1CCc2ccccc2C1CCc1c[nH]c2ccc(C#N)cc12 (single isomer, unassigned; (-)) [listing 2 of 2 here] | 1500

These molecules were tested against Sodium-dependent serotonin transporter (Homo sapiens, UniProt P31645) (assay: Displacement of [I125]RTI-55 from human SERT transfected in human HEK293 cells).
Sodium-dependent serotonin transporter, sequence (P31645 whole entry): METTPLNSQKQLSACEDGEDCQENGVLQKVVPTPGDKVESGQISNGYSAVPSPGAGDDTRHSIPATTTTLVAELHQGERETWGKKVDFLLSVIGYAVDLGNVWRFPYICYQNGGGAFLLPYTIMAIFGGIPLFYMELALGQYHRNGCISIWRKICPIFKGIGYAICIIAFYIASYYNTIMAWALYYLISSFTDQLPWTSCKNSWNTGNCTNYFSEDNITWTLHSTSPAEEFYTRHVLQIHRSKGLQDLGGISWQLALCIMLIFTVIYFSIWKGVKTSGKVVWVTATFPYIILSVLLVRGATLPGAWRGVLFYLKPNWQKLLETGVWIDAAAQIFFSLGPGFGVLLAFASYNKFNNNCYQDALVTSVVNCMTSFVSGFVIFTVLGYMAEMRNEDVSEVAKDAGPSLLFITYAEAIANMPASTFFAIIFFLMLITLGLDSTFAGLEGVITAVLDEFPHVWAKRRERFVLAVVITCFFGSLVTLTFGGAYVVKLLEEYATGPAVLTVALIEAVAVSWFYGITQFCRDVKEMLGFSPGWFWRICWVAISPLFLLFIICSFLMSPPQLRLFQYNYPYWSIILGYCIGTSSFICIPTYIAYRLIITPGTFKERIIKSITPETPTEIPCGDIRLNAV
Assay type: cell-based

Compound | pIC50
N#Cc1ccc2[nH]cc(CCC3CCCCN3Cc3ccccc3)c2c1 (configuration not stated) | 8.15
CN1CCCCC1(C)CCc1c[nH]c2ccc(C#N)cc12 (configuration not stated) | 8.68
N#Cc1ccc2[nH]cc(CCC3CCCCN3CCC(F)(F)F)c2c1 (configuration not stated) | 7.10
CN1CCCC1CCc1c[nH]c2ccc(C#N)cc12 (configuration not stated) | 8.09
CN1CCc2ccccc2C1CCc1c[nH]c2ccc(C#N)cc12 (single isomer, unassigned; (-)) [listing 1 of 2 here] | 9.38
N#Cc1ccc2[nH]cc(CCC3CCCCN3)c2c1 (configuration not stated) | 8.60
CN1CCOCC1CCc1c[nH]c2ccc(C#N)cc12 (configuration not stated) | 7.12
CN1CCc2ccccc2C1CCc1c[nH]c2ccc(C#N)cc12 (single isomer, unassigned; (+)) | 8.38
CN1CCc2ccccc2C1CCc1c[nH]c2ccc(C#N)cc12 (stereo in doubt; 21a) | 8.96
CN1CCCCC1CCc1c[nH]c2ccc(C#N)cc12 (configuration not stated) | 8.41
CN1CC[C@H](Cc2ccccc2)C[C@@H]1CCc1c[nH]c2ccc(C#N)cc12 | 8.12
N#Cc1ccc2[nH]cc(CCC3CCCCN3Cc3cc(C(F)(F)F)cc(C(F)(F)F)c3)c2c1 (configuration not stated) | 7.34
COc1ccc2[nH]cc(CCC3c4ccccc4CCN3C)c2c1 (configuration not stated) | 6.92
N#Cc1ccc2[nH]cc(CCC3CCCN3)c2c1 (configuration not stated) | 7.77
CCN1CCCCC1CCc1c[nH]c2ccc(C#N)cc12 (configuration not stated) | 8.40
N#Cc1ccc2[nH]cc(CC[C@H]3C[C@@H](Cc4ccccc4)CCN3)c2c1 | 7.74
CC1(CCc2c[nH]c3ccc(C#N)cc23)CCCCN1 (configuration not stated) | 7.77
CN1CCc2ccccc2C1CCc1c[nH]c2ccc(F)cc12 (configuration not stated) | 8.24

Species: Homo sapiens
Assay: Selectivity ratio of IC50 for human NET to IC50 for human SERT

Compound | Ratio IC50
CN1CCc2ccccc2C1CCc1c[nH]c2ccc(C#N)cc12 (single isomer, unassigned; (-)) [listing 2 of 2 here] | > 20000

Each molecule was assayed against Sodium-dependent noradrenaline transporter (Homo sapiens, UniProt P23975) (assay: Displacement of [125I]nisoxetine from human NET transfected in human HEK293 cells).
Sodium-dependent noradrenaline transporter, sequence (P23975 whole entry): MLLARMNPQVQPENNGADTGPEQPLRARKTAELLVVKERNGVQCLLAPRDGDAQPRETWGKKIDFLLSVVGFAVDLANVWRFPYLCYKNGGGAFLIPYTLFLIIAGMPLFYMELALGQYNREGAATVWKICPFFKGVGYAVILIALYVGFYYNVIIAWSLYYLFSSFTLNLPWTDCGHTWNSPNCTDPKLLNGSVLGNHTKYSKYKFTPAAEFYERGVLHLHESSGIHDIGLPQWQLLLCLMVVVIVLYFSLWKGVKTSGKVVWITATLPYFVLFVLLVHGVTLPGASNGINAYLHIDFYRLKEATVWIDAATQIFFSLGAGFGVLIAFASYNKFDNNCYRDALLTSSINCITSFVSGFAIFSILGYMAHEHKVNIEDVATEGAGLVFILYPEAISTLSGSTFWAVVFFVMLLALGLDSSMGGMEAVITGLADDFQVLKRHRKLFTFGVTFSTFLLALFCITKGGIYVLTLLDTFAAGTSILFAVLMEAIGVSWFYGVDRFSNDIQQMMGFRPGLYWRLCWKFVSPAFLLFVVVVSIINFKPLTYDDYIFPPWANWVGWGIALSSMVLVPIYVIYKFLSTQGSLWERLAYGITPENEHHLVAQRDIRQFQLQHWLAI
Assay type: cell-based

Compound | pIC50
CN1CCc2ccccc2C1CCc1c[nH]c2ccc(C#N)cc12 (single isomer, unassigned; (-)) [listing 1 of 2 here] | < 5.00
